Measurements reported in ChEMBL document CHEMBL1250462, “Affinity of aporphines for the human 5-HT2A receptor: insights from homology modeling and molecular docking studies” (Bioorg Med Chem, 2010).

These compounds were tested against 5-hydroxytryptamine receptor 2A (Homo sapiens) (UniProt P28223).
Sequence of 5-hydroxytryptamine receptor 2A (Homo sapiens) (P28223 whole entry): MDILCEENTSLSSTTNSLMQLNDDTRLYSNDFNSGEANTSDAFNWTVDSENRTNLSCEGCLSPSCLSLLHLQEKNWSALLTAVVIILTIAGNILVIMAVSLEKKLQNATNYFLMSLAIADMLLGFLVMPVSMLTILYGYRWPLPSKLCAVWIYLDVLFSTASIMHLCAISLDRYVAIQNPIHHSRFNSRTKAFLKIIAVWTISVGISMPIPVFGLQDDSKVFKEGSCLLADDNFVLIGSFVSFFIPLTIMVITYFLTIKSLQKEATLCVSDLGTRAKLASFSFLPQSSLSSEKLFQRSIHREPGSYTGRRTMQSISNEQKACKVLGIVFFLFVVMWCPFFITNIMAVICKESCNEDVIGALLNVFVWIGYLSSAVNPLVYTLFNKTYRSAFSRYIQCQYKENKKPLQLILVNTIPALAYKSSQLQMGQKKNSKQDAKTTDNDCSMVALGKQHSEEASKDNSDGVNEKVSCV

| Ke | SMILES |
| --- | --- |
| > 10 µM | COc1cc2c3c(c1OC)-c1cc4c(cc1CC3N(C(C)=O)CC2)OCO4 (stereo not drawn) |
| 4.6 µM | COc1cc2c3c(c1OCc1ccccc1)-c1cc4c(cc1CC3N(C)CC2)OCO4 (stereo not drawn) |
| > 10 µM | COc1cc2c3c(c1OC)-c1cc4c(cc1CC3N(S(C)(=O)=O)CC2)OCO4 (stereo not drawn) |
